From patent US7736537B1, “Replacement solvents having improved properties for refrigeration flushes” (Mainstream Engineering Corp., priority 2008, dated 2010)
Where two headings read alike, the source gives them in different places.

Columns and labels:
[1] = Excerpt: Parameters such as the lethal dose 50 (LD50), lethal concentration 50 (LC50), cardiac sensitization, skin irritation, and mutagenicity (e.g., via the Ames test) can be used as toxicity metrics. The LDn or LCn abbreviations, where n is the percent lethality, are used for the dose of a toxicant lethal to n % of a test population. […] Cardiac sensitization is a measure of the ability of a compound to cause cardiac arrhythmia under stress.
The property modification components are chosen from a list of potential replacement solvents. These compounds included halogenated compounds such as halogenated acetates, alcohols, alkanes, cycloalkanes, alkenes, cycloalkenes, amines, anhydrides, aromatics, carbonyls, diones, esters, ethers, heterocyclics and ketones.

[2] = solubility parameter, Table 1; cited from earlier work
[3] = Table 1; cited from earlier work
[4] = cardiac sensitization relative to CFC-113

Compound | CS/CS113 [1, 4] | SP [2] | BP [3] | CS/CS113 [1]
FC(F)OC(Cl)C(F)(F)F (stereo not drawn) [1-chloro-2,2,2-trifluoroethyl difluoromethyl ether, reference compound] | 50.2 | 7.58 (cal/cm^3)^1/2 | 48.8 C. | 
COC(F)=C(C(F)(F)F)C(F)(F)F [1-methoxy-2-trifluoromethyl-1,3,3,3-tetrafluoro-1-propene] | 154.6 | 7.09 (cal/cm^3)^1/2 | 44.5 C. | 
FC1C(F)C(F)(F)C(F)(F)C(F)C1(F)F (stereo not drawn) [1H,2H,4H-nonafluorocyclohexane] | 18.5 | 7.02 (cal/cm^3)^1/2 | 65.0 C. | 
FC(F)=C(F)OC(F)(F)C(F)(F)Br [2-bromo-1,1,2,2-tetrafluoroethoxy-trifluoroethene] | 33.0 | 7.30 (cal/cm^3)^1/2 | 81.9 C. | 
C=C(Br)C(F)(F)C(F)(F)F [2-bromo-3,3,4,4,4-pentafluorobutene] | 10.5 | 7.19 (cal/cm^3)^1/2 | 66.1 C. | 
Fc1c(F)c(F)c(C(F)(F)F)c(Br)c1F [2-bromoheptafluorotoluene] | 21.5 | 7.64 (cal/cm^3)^1/2 | 151.3 C. | 
FC(F)OC(F)(F)C(F)Cl (stereo not drawn) [2-chloro-1,1,2-trifluoroethyl difluoromethyl ether, reference compound] |  | 7.71 (cal/cm^3)^1/2 | 56.7 C. | 35.5
CCOC(F)(F)C(F)Cl (stereo not drawn) [2-chloro-1,1,2-trifluoroethyl ethyl ether] | 15.0 | 7.50 (cal/cm^3)^1/2 | 88.9 C. | 
FC(C(F)C(F)(F)C(F)(F)F)C(F)(F)F (stereo not drawn) [2H,3H-decafluoropentane] | 91.5 | 6.84 (cal/cm^3)^1/2 | 55.0 C. | 
OCC(C(F)(F)F)(C(F)(F)F)C(F)(F)F [3,3,3-trifluoro-bis-2,2-(trifluoromethyl)-1-propanol] | 40.7 | 6.81 (cal/cm^3)^1/2 | 86.1 C. | 
FC(F)(F)C(F)(F)C(Cl)Cl [3,3-dichloro-1,1,1,2,2-pentafluoropropane] | 16.7 | 7.26 (cal/cm^3)^1/2 | 48.5 C. | 
FC(F)=C(F)C(F)(Br)C(F)(F)F (stereo not drawn) [3-bromo-1,1,2,3,4,4,4-heptafluorobutene] | 21.9 | 6.75 (cal/cm^3)^1/2 | 47.5 C. | 
FC=CC(F)(F)Br [3-bromo-1,3,3-trifluoropropene] | 12.9 | 7.73 (cal/cm^3)^1/2 | 41.5 C. | 
C=C(F)C(F)(F)Br [3-bromo-2,3,3-trifluoropropene] | 6.1 | 7.66 (cal/cm^3)^1/2 | 41.6 C. | 
C=C(F)C(F)(Br)C(F)(F)F (stereo not drawn) [3-bromo-2,3,4,4,4-pentafluorobutene] | 4.9 | 7.20 (cal/cm^3)^1/2 | 69.7 C. | 
C=CC(F)(F)Br [3-bromo-3,3-difluoro-1-propene] | 5.9 | 7.89 (cal/cm^3)^1/2 | 42.0 C. | 
C=C(C(F)(F)F)C(F)(F)Br [3-bromo-3,3-difluoro-2-(trifluoromethyl)-propene] | 15.0 | 7.24 (cal/cm^3)^1/2 | 49.7 C. | 
Fc1c(F)c(Br)c(F)c(C(F)(F)F)c1F [3-bromoheptafluorotoluene] | 21.1 | 7.66 (cal/cm^3)^1/2 | 153.0 C. | 
FC(=C(C(F)(F)F)C(F)(F)F)C(F)(F)Br [4-bromo-1,1,1,3,4,4-hexafluoro-2-(trifluoromethyl)-2-butene] | 103.2 | 6.51 (cal/cm^3)^1/2 | 68.1 C. | 
FC(F)(Br)C=C(C(F)(F)F)C(F)(F)F [4-bromo-1,1,1,4,4-pentafluoro-2-(trifluoromethyl)-2-butene] | 105.5 | 6.74 (cal/cm^3)^1/2 | 61.0 C. | 
FC(F)=C(F)C(F)(F)C(F)(F)Br [4-bromo-1,1,2,3,3,4,4-heptafluorobutene] | 23.4 | 6.78 (cal/cm^3)^1/2 | 51.5 C. | 
FC(F)=C(F)C(F)(F)CBr [4-bromo-1,1,2,3,3-pentafluorobutene] | 25.3 | 7.79 (cal/cm^3)^1/2 | 80.4 C. | 
C=C(F)C(F)(F)C(F)(F)Br [4-bromo-2,3,3,4,4-pentafluorobutene] | 6.0 | 7.21 (cal/cm^3)^1/2 | 69.2 C. | 
C=CC(F)(F)C(F)(F)Br [4-bromo-3,3,4,4-tetrafluoro-1-butene] | 5.8 | 7.44 (cal/cm^3)^1/2 | 55.0 C. | 

Compound | CS/CS113 [1, 4] | SP [2] | BP [3] | CS/CS113 [1]
C=CC(F)(Cl)C(F)(F)Br (stereo not drawn) [4-bromo-3-chloro-3,4,4-trifluoro-1-butene] | 0.8 | 7.76 (cal/cm^3)^1/2 | 99.7 C. | 
Fc1c(F)c(C(F)(F)F)c(F)c(F)c1Br [4-bromoheptafluorotoluene] | 37.9 | 7.66 (cal/cm^3)^1/2 | 151.3 C. | 
FC(F)(F)COCC(F)(F)Br [(2,2,2-trifluoroethyl)(2-bromo-2,2-difluoroethyl)ether] | 52.1 | 7.64 (cal/cm^3)^1/2 | 73.0 C. | 
F/C(OC(F)(F)Br)=C(/F)C(F)(F)F [(E)-1-(bromodifluoromethoxy)-1,2,3,3,3-pentafluoro-1-propene] | 70.1 | 7.25 (cal/cm^3)^1/2 | 65.2 C. | 
FC(F)(F)O/C=C/OC(F)(F)Br [(E)-1-(bromodifluoromethoxy)-2-(trifluoromethoxy)ethene] | 144.9 | 7.79 (cal/cm^3)^1/2 | 76.5 C. | 
FC(F)(F)/C=C/OC(F)(F)Br [(E)-1-(bromodifluoromethoxy)-2-(trifluoromethyl)ethene] | 54.3 | 7.73 (cal/cm^3)^1/2 | 57.8 C. | 
FC(F)(F)/C=C/C(F)(F)Br [(E)-1-bromo-1,1,4,4,4-pentafluoro-2-butene] | 36.6 | 7.37 (cal/cm^3)^1/2 | 40.0 C. | 
F/C(=C(/F)C(F)(F)Br)C(F)(F)F [(E)-1-bromo-perfluoro-2-butene] | 41.4 | 6.85 (cal/cm^3)^1/2 | 48.0 C. | 
FC(F)(F)/C(Cl)=C(\Cl)C(F)(F)F [(E)-2,3-dichlorohexafluoro-2-butene] | 72.4 | 7.15 (cal/cm^3)^1/2 | 68.5 C. | 
F/C(=C(/Br)C(F)(F)F)C(F)(F)F [(E)-2-bromo-1,1,1,3,4,4,4-heptafluoro-2-butene] | 48.6 | 6.82 (cal/cm^3)^1/2 | 49.0 C. | 
FC(F)(F)/C=C(/Br)C(F)(F)F [(E)-2-bromo-1,1,1,4,4,4-hexafluoro-2-butene] | 42.7 | 7.06 (cal/cm^3)^1/2 | 45.1 C. | 
F/C(OC(F)(F)Br)=C(\F)C(F)(F)F [(Z)-1-(bromodifluoromethoxy)-1,2,3,3,3-pentafluoro-1-propene] | 70.1 | 7.22 (cal/cm^3)^1/2 | 65.2 C. | 
FC(F)(F)O/C=C\OC(F)(F)Br [(Z)-1-(bromodifluoromethoxy)-2-(trifluoromethoxy)ethene] | 144.9 | 7.79 (cal/cm^3)^1/2 | 76.5 C. | 
FC(F)(F)/C=C\OC(F)(F)Br [(Z)-1-(bromodifluoromethoxy)-2-(trifluoromethyl)ethene] | 54.3 | 7.63 (cal/cm^3)^1/2 | 57.8 C. | 
FC(F)(F)/C=C\C(F)(F)Br [(Z)-1-bromo-1,1,4,4,4-pentafluoro-2-butene] | 36.6 | 7.25 (cal/cm^3)^1/2 | 40.0 C. | 
F/C(Br)=C(/F)OCC(F)(F)F [(Z)-1-bromo-1,2-difluoro-2-(2,2,2-trifluoroethoxy)-ethene] | 52.7 | 7.61 (cal/cm^3)^1/2 | 87.9 C. | 
F/C(=C(\F)C(F)(F)Br)C(F)(F)F [(Z)-1-bromo-perfluoro-2-butene] | 41.4 | 6.78 (cal/cm^3)^1/2 | 48.0 C. | 
F/C(=C(\Br)C(F)(F)F)C(F)(F)F [(Z)-2-bromo-1,1,1,3,4,4,4-heptafluoro-2-butene] | 48.6 | 6.79 (cal/cm^3)^1/2 | 49.0 C. | 
Fc1c(F)c(F)c(C(F)(F)Br)c(F)c1F [(bromodifluoromethyl)-pentafluorobenzene] | 28.2 | 7.63 (cal/cm^3)^1/2 | 153.3 C. | 
FC(F)(F)COCC(F)(F)F [bis(2,2,2-trifluoroethyl)ether] | 109.2 | 7.32 (cal/cm^3)^1/2 | 62.5 C. | 
FC(F)OC(F)(F)C(F)(F)OC(F)F [bis(difluoromethoxy)-tetrafluoroethane] | 362.3 | 7.50 (cal/cm^3)^1/2 | 58.0 C. | 
CCOC(F)(F)C(F)(F)C(F)(F)C(F)(F)F [ethyl-perfluorobutyl ether] | 69.0 | 6.85 (cal/cm^3)^1/2 | 73.0 C. | 
FCOC(C(F)(F)F)C(F)(F)F [fluoromethyl 2,2,2-trifluoro-1-(trifluoromethyl)ethyl ether, reference compound] | 103.0 | 7.10 (cal/cm^3)^1/2 | 59.0 C. | 
